Reference: patent US11530206B2, “Phenylaminopyrimidine amide autophagy inhibitors and methods of use thereof” (Deciphera Pharmaceuticals, LLC, priority 2019, dated 2022)

Tests used:
ULK kinase [1] = experiment: pATG13 levels of mutant KRas MiaPaCa-2 cells after treatment with ULK inhibitors in combination with trametinib (ELISA); assay type: cell-based, human; details: MiaPaCa-2 pancreatic cancer cells, 250 nM trametinib, overnight, pS318-ATG13
Procedure: (§1) MiaPaCa-2 human pancreatic cancer cells (10000 cells/well) were added to a 384-well tissue-culture treated plate in 50 μL of pre-warmed DMEM medium supplemented with 10% characterized fetal bovine serum (Invitrogen, Carlsbad, Calif.), 100 units/mL penicillin G, 100 µg/mL streptomycin, and 2.5% Horse Serum and allowed to grow overnight at 37° C., 5% CO2, and 95% humidity. The following day, 10 μL of media containing trametinib or DMSO as a control was added to wells. […] A dose response of a test compound (0.6 μL per well) was added. DMSO (0.6 μL) was added to control wells. The plate was briefly shaken to mix wells and then incubated at 37° C. overnight. The next day, the media was aspirated and cells were washed with Dulbecco's Phosphate Buffered Saline (Gibco). Cells were lysed using MPER lysis buffer (Pierce, Rockford, Ill.) containing Halt Phosphatase and Protease Inhibitors (Pierce, Rockford, Ill.) and Phosphatase inhibitor cocktail 2 (Sigma, St. Louis, Mo.) at 4° C. for 10 minutes with shaking.
(§2) Plate wells were washed with ELISA wash buffer. Cell lysate was added to wells and incubated at room temperature for 2 hours. Plate wells were washed with ELISA wash buffer. […] Plate wells were washed with ELISA wash buffer. […] Plate wells were washed with ELISA wash buffer. […] The reaction was stopped with 2N Sulfuric Acid. The plate was analyzed at on a plate reader measuring absorbance at 450 nm and 540 nm (background). Signal was calculated by first subtracting the background absorbance at 540 nm from the absorbance at 450 nm for each well. Next, the background corrected absorbance at 450 nm from blank wells was subtracted from test wells. Data was compared to control wells to determine % ATG13 phosphorylation. GraphPad Prism was used to calculate IC50 values.

ULK1 kinase = target: T1, ULK1 kinase (Homo sapiens, UniProt O75385, E37A/K38A); experiment: Biochemical assay for ULK1.3 (coupled pyruvate kinase/lactate dehydrogenase assay, peptide substrate); details: 0.1 nM ULK1 (residues 1-283), 1 mM ATP
T1 construct: purchased Beryllium
T1 sequence (O75385 1-283 E37A/K38A): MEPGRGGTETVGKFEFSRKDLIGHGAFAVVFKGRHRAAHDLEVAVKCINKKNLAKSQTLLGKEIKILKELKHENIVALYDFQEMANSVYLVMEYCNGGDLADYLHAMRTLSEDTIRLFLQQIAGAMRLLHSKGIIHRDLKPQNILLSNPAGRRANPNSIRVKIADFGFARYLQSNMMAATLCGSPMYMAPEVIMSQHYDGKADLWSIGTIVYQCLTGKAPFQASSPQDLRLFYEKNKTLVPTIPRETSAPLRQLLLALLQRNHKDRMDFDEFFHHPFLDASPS
Procedure: Biochemical Assay for ULK1.3 (SEQ. ID NO: 2)
Inhibition of ULK1 was measured by adding serial diluted test compound (final assay concentration of 1% DMSO). A decrease in absorption at 340 nm was monitored continuously for 6 hours at 30° C. on a multi-mode microplate reader (BioTek). The reaction rate was calculated using the 2-3 h time frame. The reaction rate at each concentration of compound was converted to percent inhibition using controls (i.e. reaction with no test compound and reaction with a known inhibitor) and IC50 values were calculated using software routines in Prism (GraphPad software).

ULK kinase [2] = experiment: pATG13 levels of mutant KRas A549 cells after treatment with ULK inhibitors in combination with trametinib (ELISA); assay type: cell-based, human; details: A549 (KRAS mutant) lung cancer cells, 250 nM trametinib, overnight, pS318-ATG13
Procedure: Cellular Inhibition of ULK Kinase Substrate ATG13 Protein pATG13 Levels of Mutant KRas A549 Cells after Treatment with ULK Inhibitors in Combination with Trametinib
as §1, with “A549 (KRAS mutant)” for “MiaPaCa-2”, “lung” for “pancreatic”, “(6,000” for “(10000”, “G, and” for “G,”, “μg/mL streptomycin” for “µg/mL streptomycin, and 2.5% Horse Serum”
as §2

Compound	IC50 (ULK kinase [1])	IC50 (ULK1 kinase)	IC50 (ULK kinase [2])
CCN1CCN(c2ccc(Nc3ncc(Br)c(NCCCN4CCCCC4=O)n3)c(C(C)C)c2)CC1 [Example 30]	0.1 to 0.3 µM	0.025 to 0.1 µM	0.3 to 0.6 µM
CN1CCN(c2ccc(Nc3cc(NCCCN4CCCCC4=O)c(C(F)(F)F)cn3)c(C3CC3)c2)CC1 [Example 94]		0.025 to 0.1 µM	
CCc1cc(C2CCN(C)CC2)ccc1Nc1ncc(C(F)(F)F)c(NCCCN2CCOCCC2=O)n1 [Example 146]		0.025 to 0.1 µM	
CN1C2CCC1CN(c1ccc(Nc3ncc(C(F)(F)F)c(NCCCN4CCOCCC4=O)n3)c(C3CC3)c1)C2 [Example 133]		0.1 to 0.5 µM	
CCc1cc(N2CCN(C)CC2)ccc1Nc1ncc(C(F)(F)F)c(NCCCN2CC(C)(C)C2=O)n1 [Example 141]		0.025 to 0.1 µM	
CCc1cc(N2CC3CCC(C2)N3C)ccc1Nc1ncc(C(F)(F)F)c(NCCCN2CCC(C)(C)OC2=O)n1 [Example 140]		0.1 to 0.5 µM	
CN1CCN(c2ccc(Nc3cc(NCCCN4CCCOC4=O)c(C(F)(F)F)cn3)cc2)CC1 [Example 102]	0.1 to 0.3 µM	0.001 to 0.025 µM	0.1 to 0.3 µM
CCc1cc(N2CCN(C)CC2)ccc1Nc1ncc(C2CC2)c(NCCCN2CCOCCC2=O)n1 [Example 83]		> 0.5 µM	
O=C1OCCCN1CCCNc1nc(Nc2ccc(N3CCN4CCC[C@@H]4C3)cc2C2CC2)ncc1C(F)(F)F [Example 42]	0.01 to 0.1 µM	0.001 to 0.025 µM	0.01 to 0.1 µM
CN1CCN(c2ccc(Nc3cc(NCCCN4CCOCCC4=O)c(C(F)(F)F)cn3)c(C3CC3)c2)CC1 [Example 101]	> 0.6 µM	0.001 to 0.025 µM	0.3 to 0.6 µM
CCc1cc(N2CCN(C)CC2)ncc1Nc1ncc(C(F)(F)F)c(NCCCN2CCOCCC2=O)n1 [Example 67]	0.1 to 0.3 µM	0.001 to 0.025 µM	0.1 to 0.3 µM
CCc1cc(N2CCN(C)CC2)ncc1Nc1ncc(C(F)(F)F)c(NCCCN2CCCOC2=O)n1 [Example 128]		0.001 to 0.025 µM	
CCc1cc(N2CCCN(C)CC2)ccc1Nc1ncc(C(F)(F)F)c(NCCCN2CCCOCC2=O)n1 [Example 63]		0.025 to 0.1 µM	
CN1CCN(c2ccc(Nc3ncc(Br)c(NCCCN4CCCOC4=O)n3)c(C3CC3)c2)CC1 [Example 40]	0.01 to 0.1 µM	0.001 to 0.025 µM	0.01 to 0.1 µM
CCc1cc(N2CCCN(C)CC2)ccc1Nc1ncc(C(F)(F)F)c(NCCCN2CCCCC2=O)n1 [Example 31]	0.1 to 0.3 µM	0.001 to 0.025 µM	0.3 to 0.6 µM
CCc1cc(N2CCN(C)CC2)ccc1Nc1ncc(Cl)c(NCCCN2CCOCCC2=O)n1 [Example 80]	0.1 to 0.3 µM	0.025 to 0.1 µM	> 0.6 µM
CN1CCN(c2ccc(Nc3cc(NCCCN4CCCCC4=O)c(C(F)(F)F)cn3)nc2)CC1 [Example 97, 1-(3-((2-((5-(4-methylpiperazin-1-yl)pyridin-2-yl)amino)-5-(trifluoromethyl)pyridin-4-yl)amino)propyl)piperidin-2-one]		0.1 to 0.5 µM	
CCN1CCN(c2ccc(Nc3ncc(C(F)(F)F)c(NCCCN4CCCCC4=O)n3)c(C(C)C)c2)CC1 [Example 28]	0.1 to 0.3 µM	0.001 to 0.025 µM	0.1 to 0.3 µM
CCc1cc(N2CC3CCC(C2)N3)ccc1Nc1ncc(C(F)(F)F)c(NCCCN2CCOCCC2=O)n1 [Example 150]	0.01 to 0.1 µM	0.001 to 0.025 µM	0.1 to 0.3 µM
CCc1cc(N2CC3CCC(C2)N3C)ccc1Nc1ncc(C(F)(F)F)c(NCCCN2CC(C)(C)C2=O)n1 [Example 139]		> 0.5 µM	
CC(C)c1cc(N2CCN(C)CC2)ccc1Nc1ncc(Br)c(NCCCN2CCCCC2=O)n1 [Example 15]		0.025 to 0.1 µM	
CCc1cc(N2CCN(C)CC2)ccc1Nc1ncc(Cl)c(NCCCN2CCCOC2=O)n1 [Example 43]		0.025 to 0.1 µM	
CN1CCN(c2ccc(Nc3ncc(C(F)(F)F)c(NCCCN4CCCOC4=O)n3)c(C(C)(C)O)c2)CC1 [Example 135]		0.1 to 0.5 µM	
CN1CCN(c2ccc(Nc3cc(NCCCN4CCOCCC4=O)c(Cl)cn3)c(C3CC3)c2)CC1 [Example 104]		0.1 to 0.5 µM	
CCc1cc(N2CC3CCC(C2)N3C)ccc1Nc1ncc(C(F)(F)F)c(NCCCN2CCCOCC2=O)n1 [Example 138]		0.1 to 0.5 µM	
CCN1CCN(c2ccc(Nc3ncc(Cl)c(NCCCN4CCCCC4=O)n3)c(C(C)C)c2)CC1 [Example 29]		0.1 to 0.5 µM	
CCc1cc(N2CC[C@@H](N(C)C)C2)ccc1Nc1ncc(C(F)(F)F)c(NCCCN2CCOCCC2=O)n1 [Example 144]		0.001 to 0.025 µM	
CCc1cc(N2CCN(C)CC2)ccc1Nc1ncc(C2CC2)c(NCCCN2CCCOC2=O)n1 [Example 45]		0.1 to 0.5 µM	
CCc1cc(N2CCN3CCC[C@H]3C2)ccc1Nc1ncc(C(F)(F)F)c(NCCCN2CCCOC2=O)n1 [Example 121]		0.001 to 0.025 µM	

Other lines, results leading:

IC50 (ULK kinase [1])	IC50 (ULK1 kinase)	IC50 (ULK kinase [2])	Compound
0.01 to 0.1 µM	0.001 to 0.025 µM	0.01 to 0.1 µM	CCc1cc(N2CCN(C)CC2)ccc1Nc1ncc(Br)c(NCCCN2CCCOC2=O)n1 [Example 44]
0.01 to 0.1 µM	0.001 to 0.025 µM	0.1 to 0.3 µM	CN1CCN(c2ccc(Nc3ncc(Br)c(NCCCN4CCOCCC4=O)n3)c(C3CC3)c2)CC1 [Example 81]
0.1 to 0.3 µM	0.025 to 0.1 µM	0.1 to 0.3 µM	CN1CCN(c2ccc(Nc3ncc(Cl)c(NCCCN4CCCCC4=O)n3)c(C3CC3)c2)CC1 [Example 27]
	0.001 to 0.025 µM		CN(C)CC1CN(c2ccc(Nc3ncc(C(F)(F)F)c(NCCCN4CCCCC4=O)n3)c(C3CC3)c2)C1 [Example 151]
	0.001 to 0.025 µM		CCc1cc(N2CC[C@H](N(C)C)C2)ccc1Nc1ncc(C(F)(F)F)c(NCCCN2CCOCCC2=O)n1 [Example 145]
	0.001 to 0.025 µM		CN(C)C1CN(c2ccc(Nc3ncc(C(F)(F)F)c(NCCCN4CCOCCC4=O)n3)c(C3CC3)c2)C1 [Example 136]
	0.001 to 0.025 µM		CN1CCCN(c2ccc(Nc3ncc(C(F)(F)F)c(NCCCN4CCCCC4=O)n3)c(C3CC3)c2)CC1 [Example 24]
0.01 to 0.1 µM	0.001 to 0.025 µM	0.1 to 0.3 µM	CN1CCN(c2ccc(Nc3cc(NCCCN4CCOCCC4=O)c(C(F)(F)F)cn3)cc2)CC1 [Example 110]
	0.001 to 0.025 µM		CCc1cc(N2CCN(C)CC2)ccc1Nc1ncc(C(F)(F)F)c(NCCCN2CCOCC(C)(C)C2=O)n1 [Example 142]
	0.001 to 0.025 µM		CCc1cc(N2CC(CN(C)C)C2)ccc1Nc1ncc(C(F)(F)F)c(NCCCN2CCOCCC2=O)n1 [Example 152]
	> 0.5 µM		CN1CCN(c2ccc(Nc3ncc(C(F)(F)F)c(NCCCN4CCOCCC4=O)n3)c(C(C)(C)O)c2)CC1 [Example 134]
	0.1 to 0.5 µM		O=C1CCOCCN1CCCNc1nc(Nc2ccc(N3CCNCC3)cc2C2CC2)ncc1Cl [Example 89]
	0.025 to 0.1 µM		CCc1cc(N2CCN(C)CC2)ncc1Nc1ncc(C(F)(F)F)c(NCCCN2CCCOCC2=O)n1 [Example 53]
	0.025 to 0.1 µM		CC(C)c1cc(N2CCN(C)CC2)ccc1Nc1ncc(Br)c(NCCCN2CCCOCC2=O)n1 [Example 77]
	0.001 to 0.025 µM		CN1CCN(c2ccc(Nc3ncc(C(F)(F)F)c(NCCCN4CCCCCC4=O)n3)c(C3CC3)c2)CC1 [Example 38]
	0.001 to 0.025 µM		CCc1cc(C2CCN(C)C2)ccc1Nc1ncc(C(F)(F)F)c(NCCCN2CCOCCC2=O)n1 (stereo not shown) [Example 143]
